Patent US4797395A, “1-Acyloxyalkyl esters of cephalosporin” (Takeda Chemical Industries, Ltd., priority 1983, dated 1989)
Where a name gives a salt, the structure may show the parent alone. Read-outs that look alike come from different tables or passages of the source.

What was measured:
[1] = mouse, in vivo
Method: The compounds of Examples (compound Nos. 1, 2, 3, 4, 5, 6, 7 and 8) and, as a control compound, the pivaloyloxymethyl ester of compound [II] (hereinafter referred to briefly as compound A) are administered orally to mice, each compound to one animal, in the dose of 100 mg/kg in terms of the non-ester, i.e. compound [II]. At 0.25, 0.5, 1.0 and 2.0 hours after administration, the concentration of compound [II] in the plasma of each mouse is measured by the cup method using Proteus mirabilis Eb 313 as the test organism and the area under plasma concentration-time curve from zero to 2 hours (AUC) is calculated. As a control, compound [II] is subcutaneously administered to a mouse and the AUC value is calculated as above. The bioavailability is calculated by means of the following equation. [formula]

Proteus vulgaris = conditions: gram-negative; Antimicrobial Agent and Chemotherapy 14, 557-568 (1978); cited from earlier work
Staphylococcus aureus = conditions: gram-positive; Antimicrobial Agent and Chemotherapy 14, 557-568 (1978); cited from earlier work
Proteus morganii = conditions: gram-negative; Antimicrobial Agent and Chemotherapy 14, 557-568 (1978); cited from earlier work
Klebsiella pneumoniae = conditions: gram-negative; Antimicrobial Agent and Chemotherapy 14, 557-568 (1978); cited from earlier work
Escherichia coli = conditions: gram-negative; Antimicrobial Agent and Chemotherapy 14, 557-568 (1978); cited from earlier work
Proteus mirabilis = conditions: gram-negative; Antimicrobial Agent and Chemotherapy 14, 557-568 (1978); cited from earlier work

Row | SMILES | Bioavailability ([1]; 100 mg/kg, 120 min) | Plasma level of non-ester (compound [II]), 0.25 hr ([1]; po, 100 mg/kg, 15 min) | Plasma level of non-ester (compound [II]), 0.5 hr ([1]; po, 100 mg/kg, 30 min) | Plasma level of non-ester (compound [II]), 1.0 hr ([1]; po, 100 mg/kg, 60 min) | AUC ([1]; po, 100 mg/kg, 120 min) | Plasma level of non-ester (compound [II]), 2.0 hr ([1]; po, 100 mg/kg, 120 min) | Plasma level of non-ester (compound [II]), 0.25 hr ([1]; sc, 0.25 h) | Plasma level of non-ester (compound [II]), 0.5 hr ([1]; sc, 0.5 h) | Plasma level of non-ester (compound [II]), 1.0 hr ([1]; sc, 1 h) | Bioavailability ([1]; sc, 120 min) | Plasma level of non-ester (compound [II]), 2.0 hr ([1]; sc, 2 h) | antibacterial activity (Proteus vulgaris) | antibacterial activity (Staphylococcus aureus) | antibacterial activity (Proteus morganii) | antibacterial activity (Klebsiella pneumoniae) | antibacterial activity (Escherichia coli) | antibacterial activity (Proteus mirabilis)
1 | CC(C)C(OC(=O)C1=C(CSc2nnnn2CCN(C)C)CS[C@@H]2[C@H](NC(=O)Cc3csc(N)n3)C(=O)N12)OC(=O)C1CCCCC1.Cl.Cl (stereo partly drawn) [Compound No. 1, 1-(Cyclohexylcarbonyloxy)-2-methylpropyl 7β-[2-(2-aminothiazol-4-yl)acetamido]-3-[[[1-(2-dimethylaminoethyl) -1H-tetrazol-5-yl]thio]methyl]ceph-3-em-4-carboxylate dihydrochloride] | 94.4% | 66300 ng/mL | 34500 ng/mL | 8900 ng/mL | 36600 ng·h/mL | 900 ng/mL |  |  |  |  |  |  |  |  |  |  | 
2 | CCCC(=O)OC(OC(=O)C1=C(CSc2nnnn2CCN(C)C)CS[C@@H]2[C@H](NC(=O)Cc3csc(N)n3)C(=O)N12)C1CCCCC1 (stereo partly drawn) [Compound No. 8, 1-n-Butyryloxy-1-cyclohexylmethyl 7β-[2-(2-aminothiazol-4-yl)acetamido]-3-[[[1-(2-dimethylaminoethyl) -1H-tetrazol-5-yl]thio]methyl]ceph-3-em-4-carboxylate dihydrochloride] | 103.5% | 50000 ng/mL | 39600 ng/mL | 15600 ng/mL | 40200 ng·h/mL | 2330 ng/mL |  |  |  |  |  |  |  |  |  |  | 
3 | CCCC(OC(=O)C1=C(CSc2nnnn2CCN(C)C)CS[C@@H]2[C@H](NC(=O)Cc3csc(N)n3)C(=O)N12)OC(=O)C1CCCCC1.Cl.Cl (stereo partly drawn) [compound 4, 1-(Cyclohexylcarbonyloxy)butyl 7β-[2-(2-aminothiazol-4-yl)acetamido]-3-[[[1-(2-dimethylaminoethyl) -1H-tetrazol-5-yl]thio]methyl]ceph-3-em-4-carboxylate dihydrochloride] | 98.8% | 47000 ng/mL | 38400 ng/mL | 14400 ng/mL | 38400 ng·h/mL | 2800 ng/mL |  |  |  |  |  |  |  |  |  |  | 
4 | CC(C)C(OC(=O)CC1CCCCC1)OC(=O)C1=C(CSc2nnnn2CCN(C)C)CS[C@@H]2[C@H](NC(=O)Cc3csc(N)n3)C(=O)N12.Cl.Cl (stereo partly drawn) [compound 5, 1-(Cyclohexylacetoxy)-2-methylpropyl 7β-[2-(2-aminothiazol-4-yl)acetamido]-3-[[[1-(2-dimethylaminoethyl) 1H-tetrazol-5-yl]thio]methyl]ceph-3-em-4-carboxylate dihydrochloride] | 88.8% | 29200 ng/mL | 46700 ng/mL | 11100 ng/mL | 34500 ng·h/mL | 2600 ng/mL |  |  |  |  |  |  |  |  |  |  | 
5 | CN(C)CCn1nnnc1SCC1=C(C(=O)O)N2C(=O)[C@@H](NC(=O)Cc3csc(N)n3)[C@H]2SC1 [compound [II]] |  |  |  |  |  |  | 69200 ng/mL | 29000 ng/mL | 13200 ng/mL | 100% | 1500 ng/mL | potent antibacterial activity | potent antibacterial activity | potent antibacterial activity | potent antibacterial activity | potent antibacterial activity | potent antibacterial activity

Now from value to molecule, other results behind:

Row | Bioavailability ([1]; 100 mg/kg, 120 min) | Plasma level of non-ester (compound [II]), 0.25 hr ([1]; po, 100 mg/kg, 15 min) | Plasma level of non-ester (compound [II]), 0.5 hr ([1]; po, 100 mg/kg, 30 min) | Plasma level of non-ester (compound [II]), 1.0 hr ([1]; po, 100 mg/kg, 60 min) | AUC ([1]; po, 100 mg/kg, 120 min) | Plasma level of non-ester (compound [II]), 2.0 hr ([1]; po, 100 mg/kg, 120 min) | Plasma level of non-ester (compound [II]), 0.25 hr ([1]; sc, 0.25 h) | Plasma level of non-ester (compound [II]), 0.5 hr ([1]; sc, 0.5 h) | Plasma level of non-ester (compound [II]), 1.0 hr ([1]; sc, 1 h) | Bioavailability ([1]; sc, 120 min) | Plasma level of non-ester (compound [II]), 2.0 hr ([1]; sc, 2 h) | SMILES | antibacterial activity (Proteus vulgaris) | antibacterial activity (Staphylococcus aureus) | antibacterial activity (Proteus morganii) | antibacterial activity (Klebsiella pneumoniae) | antibacterial activity (Escherichia coli) | antibacterial activity (Proteus mirabilis)
6 | 88.9% | 36400 ng/mL | 30000 ng/mL | 17000 ng/mL | 34500 ng·h/mL | 3200 ng/mL |  |  |  |  |  | CCCCC(=O)OC(OC(=O)C1=C(CSc2nnnn2CCN(C)C)CS[C@@H]2[C@H](NC(=O)Cc3csc(N)n3)C(=O)N12)C1CCCCC1.Cl.Cl (stereo partly drawn) [Compound No. 7, 1-n-Pentanoyloxy-1-cyclohexylmethyl 7β-[2-(2-aminothiazol-4-yl)acetamido]-3-[[[1-(2-dimethylaminoethyl)-1H-tetrazol-5-yl]thio]methyl]ceph-3-em-4-carboxylate dihydrochloride] |  |  |  |  |  | 
7 | 107.8% | 46100 ng/mL | 32200 ng/mL | 21200 ng/mL | 41900 ng·h/mL | 4700 ng/mL |  |  |  |  |  | CN(C)CCn1nnnc1SCC1=C(C(=O)OC(OC(=O)C2CCCCC2)C2CCCCC2)N2C(=O)[C@@H](NC(=O)Cc3csc(N)n3)[C@H]2SC1.Cl.Cl (stereo partly drawn) [compound 2, 1-(Cyclohexylcarbonyloxy)-1-cyclohexylmethyl 7β-[2-(2-aminothiazol-4-yl)acetamido]-3-[[[1-(2-dimethylaminoethyl) -1H-tetrazol-5-yl]thio]methyl]ceph-3-em-4-carboxylate dihydrochloride] |  |  |  |  |  | 
8 | 86.4% | 59500 ng/mL | 25000 ng/mL | 11700 ng/mL | 33500 ng·h/mL | 1000 ng/mL |  |  |  |  |  | CCC(OC(=O)C1=C(CSc2nnnn2CCN(C)C)CS[C@@H]2[C@H](NC(=O)Cc3csc(N)n3)C(=O)N12)OC(=O)C1CCCCC1.Cl.Cl (stereo partly drawn) [compound 3, 1-(Cyclohexylcarbonyloxy)propyl 7β-[2-(2-amino-thiazol-4-yl)acetamido]-3-[[[1-(2-dimethylaminoethyl) -1H-tetrazol-5-yl]thio]methyl]ceph-3-em-4-carboxylate dihydrochloride] |  |  |  |  |  | 
9 | 41.8% | 21000 ng/mL | 16200 ng/mL | 6100 ng/mL |  | 600 ng/mL |  |  |  |  |  | CN(C)CCn1nnnc1SCC1=C(C(=O)OCOC(=O)C(C)(C)C)N2C(=O)[C@@H](NC(=O)Cc3csc(N)n3)[C@H]2SC1 [compound A, reference compound] |  |  |  |  |  | 
